How the values were obtained:
[1] = system: BT474 cells (AXL–); assay: Dose response cell viability assay (PrestoBlue, day 5); type: cell-based; conditions: Homo sapiens, BT-474, 120 h, PrestoBlue at day 5
[2] = system: AXL-overexpressing mouse breast cancer cells (AXL+); assay: as above; type: cell-based; conditions: PrestoBlue at day 5
[3] = biological target: AKT; assay: Kinase IC50, 33P radioisotope assay (Reaction Biology); type: biochemical; conditions: recombinant kinase, 10 μM ATP
Method: The panel, which included the three members of the TAM family, was selected based on the selectivity profile frequently found for other AXL inhibitors.[9] Kinase inhibition studies were performed by Reaction Biology Corporation, USA, by measuring ^33P incorporation on the corresponding kinase substrate relative to DMSO.
To understand how these structural changes had affected the kinase selectivity of the new compounds, 12a–d were screened against the 12-member panel of kinases used for previous hits. As before, kinase inhibition screenings were performed using radioisotope based methods by Reaction Biology Corporation.
(§1) 6.2. Dose response cell viability assay
(§2) with 95 µl of fresh medium.
(§3) a separate 96-well intermediate plate.
(§4) containing cells. […] After 5 d, PrestoBlue™ cell
(§5) 6.3. Kinase screening assay

[4] = system: MOLM-13 cells; assay: Dose response cell viability assay (PrestoBlue, day 5); type: cell-based; conditions: Homo sapiens, MOLM-13, 120 h; PrestoBlue at day 5
Method: as §1, §2, §3, §4, §5

[5] = system: MV4-11 cells; assay: as above; type: cell-based; conditions: Homo sapiens, MV4-11, 120 h; PrestoBlue at day 5
Method: as §1, §2, §3, §4, §5

[6] = biological target: T1, AXL (Homo sapiens, UniProt P30530); conditions: cited from earlier work
T1 construct: purchased Reaction Biology Corporation
T1 sequence (P30530 26-894): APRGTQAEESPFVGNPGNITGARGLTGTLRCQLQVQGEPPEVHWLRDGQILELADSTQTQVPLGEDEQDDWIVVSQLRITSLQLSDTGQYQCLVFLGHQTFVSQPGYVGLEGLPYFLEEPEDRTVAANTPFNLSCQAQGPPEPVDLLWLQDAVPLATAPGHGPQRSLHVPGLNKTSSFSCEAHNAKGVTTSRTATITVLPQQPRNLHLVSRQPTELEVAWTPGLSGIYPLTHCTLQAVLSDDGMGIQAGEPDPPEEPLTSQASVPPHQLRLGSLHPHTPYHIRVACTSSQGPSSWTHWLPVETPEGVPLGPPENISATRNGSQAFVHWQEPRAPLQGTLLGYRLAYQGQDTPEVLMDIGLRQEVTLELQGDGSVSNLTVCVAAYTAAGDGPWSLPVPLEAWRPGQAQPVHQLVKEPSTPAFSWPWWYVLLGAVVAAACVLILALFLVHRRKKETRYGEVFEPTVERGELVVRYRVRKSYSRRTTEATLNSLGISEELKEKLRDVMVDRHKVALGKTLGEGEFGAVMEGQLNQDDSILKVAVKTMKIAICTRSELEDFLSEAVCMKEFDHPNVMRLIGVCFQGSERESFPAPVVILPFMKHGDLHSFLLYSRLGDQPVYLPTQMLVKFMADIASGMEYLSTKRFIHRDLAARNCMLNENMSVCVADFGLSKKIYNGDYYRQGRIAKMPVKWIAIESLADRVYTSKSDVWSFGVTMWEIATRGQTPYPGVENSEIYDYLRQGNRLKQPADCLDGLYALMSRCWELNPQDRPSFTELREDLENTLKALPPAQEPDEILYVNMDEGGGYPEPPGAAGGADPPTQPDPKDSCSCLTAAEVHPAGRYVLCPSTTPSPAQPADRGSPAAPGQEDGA

EC50 [1] [µM] | EC50 ([2]; Mus musculus, 120 h) [µM] | IC50 [3] [µM] | SMILES | further results
60 | 65.8 |  | CNc1ncc2c(-c3ccc(F)cc3)nn(CC3OCCO3)c2n1 [Compound 7i] | 
> 100 | > 100 |  | CCN1CCN(c2ccc(-c3nn(Cc4cn(Cc5ccccc5)nn4)c4nc(NC)ncc34)cn2)CC1 [Compound 12c] | 
 |  | > 10 | CNc1ncc2c(-c3ccc(N4CCNCC4)nc3)nn(CC3CCCC3)c2n1 [Compound 7f] | 
 |  | > 10 | CNc1ncc2c(-c3ccc(N4CCN(C(=O)C(C)(C)C)CC4)nc3)nn(CC3CCCC3)c2n1 [Compound 13d] | EC50 [4]: 1.3 µM; EC50 [5]: 1.44 µM
3.62 | 1.47 | > 10 | CNc1ncc2c(-c3ccc(N4CCNCC4)nc3)nn(Cc3cn(Cc4ccccc4)nn3)c2n1 [Compound 10a] | 
6.49 | 1.83 | > 10 | CNc1ncc2c(-c3ccc(N4CCNCC4)nc3)nn(Cc3cn(-c4ccsc4C(=O)OC)nn3)c2n1 [Compound 10d] | 
 |  | > 10 | CCN1CCN(c2ccc(-c3nn(CC4CCCC4)c4nc(NC)ncc34)cn2)CC1 [Compound 13c] | EC50 [4]: 0.94 µM; EC50 [5]: 3.49 µM
16.8 | 3.7 |  | CNc1ncc2c(-c3ccc(N4CCNCC4)nc3)nn(Cc3cn(-c4ccc(OC)cc4)nn3)c2n1 [Compound 10f] | 
20.5 |  | > 10 | CNc1ncc2c(-c3ccc(N4CCNCC4)nc3)nn(CC3OCCO3)c2n1 [Compound 7g] | EC50 [2]: 10.3 µM
18.4 | 34.1 |  | CNc1ncc2c(-c3ccc(N4CCNCC4)nc3)nn(Cc3cn(C4CCCC4O)nn3)c2n1 (centres unmarked) [Compound 10b] | 
25.7 | 6.91 | > 10 | CNc1ncc2c(-c3ccc(N4CCN(C)CC4)nc3)nn(Cc3cn(Cc4ccccc4)nn3)c2n1 [Compound 12b] | 
12.4 | 9.16 | > 10 | CNc1ncc2c(-c3ccc(N4CCN(C(=O)C(C)(C)C)CC4)nc3)nn(Cc3cn(Cc4ccccc4)nn3)c2n1 [Compound 12d] | 
24 | 14.1 |  | CNc1ncc2c(-c3ccc(OC)cc3)nn(CC3CCCC3)c2n1 [Compound 7a] | 

Second part, the compound before the results:

SMILES | EC50 [1] [µM] | EC50 ([2]; Mus musculus, 120 h) [µM] | IC50 [3] [µM] | further results
COc1cc2c(Oc3ccc(NC(=O)C4(C(=O)Nc5ccc(F)cc5)CC4)cc3F)ccnc2cc1OCCCN1CCOCC1 [foretinib] |  |  |  | reported to inhibit AXL at [6]: 11 nM
CNc1ccc(-c2nn(Cc3cn(Cc4ccccc4)nn3)c3nc(NC)ncc23)cn1 [Compound 12f] | > 100 | > 100 |  | EC50 (AXL+ cells) [2]: completely inactive
Nc1nc(Nc2ccc3c(c2)CC[C@@H](N2CCCC2)CC3)nn1-c1cc2c(nn1)-c1ccccc1CCC2 [BGB324, reference compound] |  |  | > 10 | 
CNc1ncc2c(-c3cccc(C(N)=O)c3)nn(CC3CCCC3)c2n1 [Compound 7e] | 24.7 | 16.3 |  | 
CNc1ncc2c(-c3ccc(N4CCN(C)CC4)nc3)nn(CC3CCCC3)c2n1 [Compound 13b] |  |  | > 10 | EC50 [4]: 0.04 µM; EC50 [5]: 0.49 µM
CNc1ncc2c(-c3ccc(OC)cc3)nn(CC3OCCO3)c2n1 [Compound 7h] | 13.1 |  | > 10 | EC50 [2]: 5.02 µM
CNc1ncc2c(-c3ccc(OC)c(OC)c3)nn(CC3CCCC3)c2n1 [Compound 7b] | 26 | 14.1 |  | 
CNc1ncc2c(-c3ccc(N4CCNCC4)cc3)nn(Cc3cn(Cc4ccccc4)nn3)c2n1 [Compound 12a] | 32.3 | 39.7 | > 10 | 

— PMC5851644, “Development of Potent Inhibitors of Receptor Tyrosine Kinases by Ligand-Based Drug Design and Target-Biased Phenotypic Screening” (Journal of Medicinal Chemistry, 2018)
